# Assay results: article PMC6979384, “Characterization of the plant homeodomain (PHD) reader family for their histone tail interactions” (Epigenetics & Chromatin, 2020)
# Columns and labels:
# Assay in all cases: Histone peptide microarray
# Type in all cases: binding, human
# Conditions in all cases: arrays performed twice
# AIRE (PP) = test system: AIRE (PP)
# Procedure, shortened: (§1)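 Binding of recombinant GST-fused PHD readers (0.5 μM) is detected on an array of 293 histone peptides, modified singly or in combination. An optimized array protocol is followed, and each intensity is the average of quadruplicate measurements with standard deviation.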
# BAZ2B = test system: BAZ2B
# Procedure, shortened: as §1
# BPTF (PB) = test system: BPTF (PB)
# Procedure, shortened: as §1
# CHD4 (PPCC) = test system: CHD4 (PPCC)
# Procedure, shortened: as §1
# CHD5 (PCC) = test system: CHD5 (PCC)
# Procedure, shortened: as §1
# CHD5 (PPCC) = test system: CHD5 (PPCC)
# Procedure, shortened: as §1
# DIDO1 = test system: DIDO1
# Procedure, shortened: as §1
# DPF2 (PPC2W2) = test system: DPF2 (PPC2W2)
# Procedure, shortened: as §1
# ING1 = test system: ING1
# Procedure, shortened: as §1
# ING2 = test system: ING2
# Procedure, shortened: as §1
# ING3 = test system: ING3
# Procedure, shortened: as §1
# ING4 = test system: ING4
# Procedure, shortened: as §1
# ING5 = test system: ING5
# Procedure, shortened: as §1
# KDM4C (TTP) = test system: KDM4C (TTP)
# Procedure, shortened: as §1
# KDM5A (1) = test system: KDM5A (1)
# Procedure, shortened: as §1
# KDM5A (3) = test system: KDM5A (3)
# Procedure, shortened: as §1
# KDM5B (1) = test system: KDM5B (1)
# Procedure, shortened: as §1
# KDM5B (3) = test system: KDM5B (3)
# Procedure, shortened: as §1
# KDM7A = test system: KDM7A
# Procedure, shortened: as §1
# MLL5 = test system: MLL5
# Procedure, shortened: as §1
# MORC3 (CW) = test system: MORC3 (CW)
# Procedure, shortened: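 Binding read as mean relative signal from 4 replicates; microarray held 293 synthetic histone peptides with single or combinatorial PTMs. Each GST-tagged PHD reader was applied at 0.5 μM using the optimized Petell protocol.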
# PHF13 = test system: PHF13
# Procedure, shortened: as §1
# PHF21A = test system: PHF21A
# Procedure, shortened: as §1
# PHF23 = test system: PHF23
# Procedure, shortened: as §1
# PHF2 = test system: PHF2
# Procedure, shortened: as §1
# PHF8 = test system: PHF8
# Procedure, shortened: as §1
# PHRF1 (RP) = test system: PHRF1 (RP)
# Procedure, shortened: as §1
# RAG2 = test system: RAG2
# Procedure, shortened: as §1
# SP140L = test system: SP140L
# Procedure, shortened: as §1
# TAF3 = test system: TAF3
# Procedure, shortened: as §1
# TRIM66 (PB) = test system: TRIM66 (PB)
# Procedure, shortened: as §1
# [1] = histone peptide array, GST-tagged reader, n of 4
# [2] = histone peptide array, GST-tagged reader, PB = PHD + Bromodomain, n of 4
# [3] = histone peptide array, GST-tagged reader, PPCC = Dual PHD + Dual Chromodomain, n of 4
# [4] = histone peptide array, GST-tagged reader, PCC = PHD + Dual Chromodomain, n of 4
# [5] = histone peptide array, GST-tagged reader, PPC2W2 = Dual PHD + C2W2-type Zn-finger, n of 4
# [6] = histone peptide array, GST-tagged reader, TTP = Tandem Tudor domain + PHD, n of 4
# [7] = histone peptide array, GST-tagged reader, CW = CW-type Zn-finger, n of 4
substance,measurement,setting,value
H3 (1-32): H3 1-32,"Array Heatmap signal, AIRE (PP)","AIRE (PP); sheet ""Array Heatmap"", GST-tagged AIRE (PP), total replicate number n = 4",0.4331
same,"Array Heatmap signal, BAZ2B","BAZ2B; sheet ""Array Heatmap"", GST-tagged BAZ2B, total replicate number n = 4",0.4644
same,"Array Heatmap signal, BPTF (PB)","BPTF (PB); sheet ""Array Heatmap"", GST-tagged BPTF (PB), total replicate number n = 4",0.3386
same,"Array Heatmap signal, CHD4 (PPCC)","CHD4 (PPCC); sheet ""Array Heatmap"", GST-tagged CHD4 (PPCC), total replicate number n = 4",0.5584
same,"Array Heatmap signal, CHD5 (PCC)","CHD5 (PCC); sheet ""Array Heatmap"", GST-tagged CHD5 (PCC), total replicate number n = 4",0.752
same,"Array Heatmap signal, CHD5 (PPCC)","CHD5 (PPCC); sheet ""Array Heatmap"", GST-tagged CHD5 (PPCC), total replicate number n = 4",0.5395
same,"Array Heatmap signal, DIDO1","DIDO1; sheet ""Array Heatmap"", GST-tagged DIDO1, total replicate number n = 4",0.6427
same,"Array Heatmap signal, DPF2 (PPC2W2)","DPF2 (PPC2W2); sheet ""Array Heatmap"", GST-tagged DPF2 (PPC2W2), total replicate number n = 4",0.6414
same,"Array Heatmap signal, ING1","ING1; sheet ""Array Heatmap"", GST-tagged ING1, total replicate number n = 4",0.5053
same,"Array Heatmap signal, ING2","ING2; sheet ""Array Heatmap"", GST-tagged ING2, total replicate number n = 4",0.5998
same,"Array Heatmap signal, ING3","ING3; sheet ""Array Heatmap"", GST-tagged ING3, total replicate number n = 4",0.4534
same,"Array Heatmap signal, ING4","ING4; sheet ""Array Heatmap"", GST-tagged ING4, total replicate number n = 4",0.4381
same,"Array Heatmap signal, ING5","ING5; sheet ""Array Heatmap"", GST-tagged ING5, total replicate number n = 4",0.344
same,"Array Heatmap signal, KDM4C (TTP)","KDM4C (TTP); sheet ""Array Heatmap"", GST-tagged KDM4C (TTP), total replicate number n = 4",0.4465
same,"Array Heatmap signal, KDM5A (1)","KDM5A (1); sheet ""Array Heatmap"", GST-tagged KDM5A (1), total replicate number n = 4",0.4672
same,"Array Heatmap signal, KDM5A (3)","KDM5A (3); sheet ""Array Heatmap"", GST-tagged KDM5A (3), total replicate number n = 4",0.5232
same,"Array Heatmap signal, KDM5B (1)","KDM5B (1); sheet ""Array Heatmap"", GST-tagged KDM5B (1), total replicate number n = 4",0.6889
same,"Array Heatmap signal, KDM5B (3)","KDM5B (3); sheet ""Array Heatmap"", GST-tagged KDM5B (3), total replicate number n = 4",0.4939
same,"Array Heatmap signal, KDM7A","KDM7A; sheet ""Array Heatmap"", GST-tagged KDM7A, total replicate number n = 4",0.308
same,"Array Heatmap signal, MLL5","MLL5; sheet ""Array Heatmap"", GST-tagged MLL5, total replicate number n = 4",0.5257
same,"Array Heatmap signal, MORC3 (CW)","MORC3 (CW); sheet ""Array Heatmap"", GST-tagged MORC3 (CW), total replicate number n = 4",0.4518
same,"Array Heatmap signal, PHF13","PHF13; sheet ""Array Heatmap"", GST-tagged PHF13, total replicate number n = 4",0.5781
same,"Array Heatmap signal, PHF21A","PHF21A; sheet ""Array Heatmap"", GST-tagged PHF21A, total replicate number n = 4",0.4399
same,"Array Heatmap signal, PHF23","PHF23; sheet ""Array Heatmap"", GST-tagged PHF23, total replicate number n = 4",0.5255
same,"Array Heatmap signal, PHF2","PHF2; sheet ""Array Heatmap"", GST-tagged PHF2, total replicate number n = 4",0.514
same,"Array Heatmap signal, PHF8","PHF8; sheet ""Array Heatmap"", GST-tagged PHF8, total replicate number n = 4",0.3413
same,"Array Heatmap signal, PHRF1 (RP)","PHRF1 (RP); sheet ""Array Heatmap"", GST-tagged PHRF1 (RP), total replicate number n = 4",0.6359
same,"Array Heatmap signal, RAG2","RAG2; sheet ""Array Heatmap"", GST-tagged RAG2, total replicate number n = 4",0.2569
same,"Array Heatmap signal, SP140L","SP140L; sheet ""Array Heatmap"", GST-tagged SP140L, total replicate number n = 4",0.3492
same,"Array Heatmap signal, TAF3","TAF3; sheet ""Array Heatmap"", GST-tagged TAF3, total replicate number n = 4",0.2681
same,"Array Heatmap signal, TRIM66 (PB)","TRIM66 (PB); sheet ""Array Heatmap"", GST-tagged TRIM66 (PB), total replicate number n = 4",0.7057
H3 (15-34)K27ac: H3 15-34,"Array Heatmap signal, AIRE (PP)",AIRE (PP); [1],0.5038
same,"Array Heatmap signal, BAZ2B",BAZ2B; [1],0.4845
same,"Array Heatmap signal, BPTF (PB)",BPTF (PB); [2],0.3592
same,"Array Heatmap signal, CHD4 (PPCC)",CHD4 (PPCC); [3],0.5674
same,"Array Heatmap signal, CHD5 (PCC)",CHD5 (PCC); [4],0.7622
same,"Array Heatmap signal, CHD5 (PPCC)",CHD5 (PPCC); [3],0.5983
same,"Array Heatmap signal, DIDO1",DIDO1; [1],0.6571
same,"Array Heatmap signal, DPF2 (PPC2W2)",DPF2 (PPC2W2); [5],0.642
same,"Array Heatmap signal, ING1",ING1; [1],0.5528
same,"Array Heatmap signal, ING2",ING2; [1],0.5993
same,"Array Heatmap signal, ING3",ING3; [1],0.5008
same,"Array Heatmap signal, ING4",ING4; [1],0.4806
same,"Array Heatmap signal, ING5",ING5; [1],0.3933
same,"Array Heatmap signal, KDM4C (TTP)",KDM4C (TTP); [6],0.5365
same,"Array Heatmap signal, KDM5A (1)",KDM5A (1); [1],0.5009
same,"Array Heatmap signal, KDM5A (3)",KDM5A (3); [1],0.4223
same,"Array Heatmap signal, KDM5B (1)",KDM5B (1); [1],0.6588
same,"Array Heatmap signal, KDM5B (3)",KDM5B (3); [1],0.4788
same,"Array Heatmap signal, KDM7A",KDM7A; [1],0.3922
same,"Array Heatmap signal, MLL5",MLL5; [1],0.5399
same,"Array Heatmap signal, MORC3 (CW)",MORC3 (CW); [7],0.3756
same,"Array Heatmap signal, PHF13",PHF13; [1],0.6352
same,"Array Heatmap signal, PHF21A",PHF21A; [1],0.4777
same,"Array Heatmap signal, PHF23",PHF23; [1],0.5579
same,"Array Heatmap signal, PHF2",PHF2; [1],0.4814
same,"Array Heatmap signal, PHF8",PHF8; [1],0.3727
same,"Array Heatmap signal, PHRF1 (RP)",PHRF1 (RP); [1],0.4538
same,"Array Heatmap signal, RAG2",RAG2; [1],0.2665
same,"Array Heatmap signal, SP140L",SP140L; [1],0.3795
same,"Array Heatmap signal, TAF3",TAF3; [1],0.268
same,"Array Heatmap signal, TRIM66 (PB)",TRIM66 (PB); [2],0.5567
H3 (15-34)K27but: H3 15-34,"Array Heatmap signal, AIRE (PP)",AIRE (PP); [1],0.5516
same,"Array Heatmap signal, BAZ2B",BAZ2B; [1],0.4927
same,"Array Heatmap signal, BPTF (PB)",BPTF (PB); [2],0.3698
same,"Array Heatmap signal, CHD4 (PPCC)",CHD4 (PPCC); [3],0.6128
same,"Array Heatmap signal, CHD5 (PCC)",CHD5 (PCC); [4],0.8263
same,"Array Heatmap signal, CHD5 (PPCC)",CHD5 (PPCC); [3],0.5931
same,"Array Heatmap signal, DIDO1",DIDO1; [1],0.6557
same,"Array Heatmap signal, DPF2 (PPC2W2)",DPF2 (PPC2W2); [5],0.6771
same,"Array Heatmap signal, ING1",ING1; [1],0.5341
same,"Array Heatmap signal, ING2",ING2; [1],0.591
same,"Array Heatmap signal, ING3",ING3; [1],0.4849
same,"Array Heatmap signal, ING4",ING4; [1],0.489
same,"Array Heatmap signal, ING5",ING5; [1],0.383
same,"Array Heatmap signal, KDM4C (TTP)",KDM4C (TTP); [6],0.5459
same,"Array Heatmap signal, KDM5A (1)",KDM5A (1); [1],0.5054
same,"Array Heatmap signal, KDM5A (3)",KDM5A (3); [1],0.4198
same,"Array Heatmap signal, KDM5B (1)",KDM5B (1); [1],0.6712
same,"Array Heatmap signal, KDM5B (3)",KDM5B (3); [1],0.5015
same,"Array Heatmap signal, KDM7A",KDM7A; [1],0.4288
same,"Array Heatmap signal, MLL5",MLL5; [1],0.5529
same,"Array Heatmap signal, MORC3 (CW)",MORC3 (CW); [7],0.372
same,"Array Heatmap signal, PHF13",PHF13; [1],0.644
same,"Array Heatmap signal, PHF21A",PHF21A; [1],0.4988
same,"Array Heatmap signal, PHF23",PHF23; [1],0.5352
same,"Array Heatmap signal, PHF2",PHF2; [1],0.467
same,"Array Heatmap signal, PHF8",PHF8; [1],0.4166
same,"Array Heatmap signal, PHRF1 (RP)",PHRF1 (RP); [1],0.4393
same,"Array Heatmap signal, RAG2",RAG2; [1],0.2497
same,"Array Heatmap signal, SP140L",SP140L; [1],0.3805
same,"Array Heatmap signal, TAF3",TAF3; [1],0.309
same,"Array Heatmap signal, TRIM66 (PB)",TRIM66 (PB); [2],0.6313
